For orientation: IC50 means the midpoint of a concentration-inhibition curve. Read a low IC50 as greater potency.

We go through 24 molecules from US10323038B2, “Pyrazole compounds and methods of making and using same” (ABIDE THERAPEUTICS, INC., priority 2015, dated 2019).

For one experiment, the target named is FAAH (Mus musculus (Mouse), UniProt O08914). The experiment in a line: In vitro competitive activity-based protein profiling, FAAH (mouse). The experiment is classed as biochemical. The following applies: for inhibition at 1 µM: read-out: FAAH % inh. 1 μM (mouse). Summed up: (§1)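 Competitive ABPP; proteome 1.0 mg/mL total protein; mouse = brain membranes or cell lysates, human = prefrontal cortex or cell membranes. Inhibitor preinc 30 min, 37° C; FP-Rh/HT-01 (50 μM DMSO stock) 30 min, 37° C; SDS-PAGE, in-gel fluorescence of MAGL/FAAH bands.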

The target in the next experiment is MAGL (Mus musculus (Mouse), UniProt O35678). Description: In vitro competitive activity-based protein profiling, MAGL (mouse). The experiment is classed as biochemical. Particulars: for inhibition at 1 µM: read-out: MAGL % inh. 1 μM (mouse). The method in brief:
as §1

Sequence of FAAH (O08914 whole entry): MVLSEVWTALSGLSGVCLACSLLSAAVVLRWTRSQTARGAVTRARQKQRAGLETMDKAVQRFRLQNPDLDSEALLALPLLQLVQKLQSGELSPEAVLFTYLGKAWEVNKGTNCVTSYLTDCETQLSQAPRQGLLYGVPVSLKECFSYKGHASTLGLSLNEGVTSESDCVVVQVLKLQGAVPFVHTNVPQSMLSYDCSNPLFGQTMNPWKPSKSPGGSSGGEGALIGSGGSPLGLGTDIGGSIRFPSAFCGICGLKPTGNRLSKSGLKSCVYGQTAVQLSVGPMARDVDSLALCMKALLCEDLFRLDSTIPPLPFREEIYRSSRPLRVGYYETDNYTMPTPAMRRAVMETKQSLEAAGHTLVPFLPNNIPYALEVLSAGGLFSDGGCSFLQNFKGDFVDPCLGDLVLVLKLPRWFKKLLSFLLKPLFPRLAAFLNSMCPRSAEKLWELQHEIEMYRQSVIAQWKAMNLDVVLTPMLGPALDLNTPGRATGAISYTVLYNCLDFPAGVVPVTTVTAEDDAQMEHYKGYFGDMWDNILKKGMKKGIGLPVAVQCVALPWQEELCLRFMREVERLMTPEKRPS
Sequence of MAGL (O35678 whole entry): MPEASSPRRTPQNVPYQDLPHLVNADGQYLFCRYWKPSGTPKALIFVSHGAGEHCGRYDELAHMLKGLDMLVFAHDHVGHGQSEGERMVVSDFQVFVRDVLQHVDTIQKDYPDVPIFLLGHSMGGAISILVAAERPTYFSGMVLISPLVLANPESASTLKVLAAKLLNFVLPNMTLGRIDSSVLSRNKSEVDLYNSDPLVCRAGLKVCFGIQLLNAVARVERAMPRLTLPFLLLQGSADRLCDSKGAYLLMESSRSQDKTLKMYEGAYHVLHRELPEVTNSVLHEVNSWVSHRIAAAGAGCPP

For `CC(=O)N(C)c1cnn(C(=O)N2CCN(Cc3cccc(N4CCCC4)c3)CC2)c1` [Example 208, N-methyl-N-(1-(4-(3-(pyrrolidin-1-yl)benzyl)piperazine-1-carbonyl)-1H-pyrazol-4-yl)acetamide], the concentration for half-maximal inhibition (IC50) on FAAH is 100 to 1000 nM; at MAGL, at most 100 nM. Besides, the inhibition at 1 µM at FAAH (1 μM) and on MAGL (1 μM) was at least 75% throughout.
On to `CC(=O)N(C)c1cnn(C(=O)N2CCN(Cc3cccc(C(F)(F)F)c3)CC2)c1` [Example 209, N-methyl-N-(1-(4-(3-(trifluoromethyl)benzyl)piperazine-1-carbonyl)-1H-pyrazol-4-yl)acetamide], for which the IC50 on FAAH and on MAGL was at most 100 nM each time. For the same molecule, the inhibition at 1 µM at FAAH (1 μM) and at MAGL (1 μM) was at least 75% in each case.
As to `CC(=O)N(C)c1cnn(C(=O)N2CCN(Cc3cccc(N4CCOCC4)c3)CC2)c1` [Example 210, N-methyl-N-(1-(4-(3-morpholinobenzyl)piperazine-1-carbonyl)-1H-pyrazol-4-yl)acetamide], the inhibition at 1 µM on FAAH (1 μM) was 0 to 25%; at MAGL (1 μM) it was at least 75%.
Regarding `CC(=O)N(C)c1cnn(C(=O)N2CCN(Cc3ccccc3F)CC2)c1` [Example 211, N-(1-(4-(2-fluorobenzyl)piperazine-1-carbonyl)-1H-pyrazol-4-yl)-N-methylacetamide], the inhibition at 1 µM on FAAH (1 μM) and at MAGL (1 μM) was at least 75% each time.
With `CC(=O)N(C)c1cnn(C(=O)N2CCN(Cc3ccccc3C)CC2)c1` [Example 212, N-methyl-N-(1-(4-(2-methylbenzyl)piperazine-1-carbonyl)-1H-pyrazol-4-yl)acetamide], the IC50 on FAAH and on MAGL was 100 to 1000 nM throughout. Also, the inhibition at 1 µM on FAAH (1 μM) and on MAGL (1 μM) was at least 75% in each case.
`COc1ccccc1CN1CCN(C(=O)n2cc(N(C)C(C)=O)cn2)CC1` [Example 213, N-(1-(4-(2-methoxybenzyl)piperazine-1-carbonyl)-1H-pyrazol-4-yl)-N-methylacetamide]: the inhibition at 1 µM on FAAH (1 μM) is 0 to 25%; at MAGL (1 μM), at least 75%.
Take `CC(=O)N(C)c1cnn(C(=O)N2CCN(Cc3ccccc3C(F)(F)F)CC2)c1` [Example 214, N-methyl-N-(1-(4-(2-(trifluoromethyl)benzyl)piperazine-1-carbonyl)-1H-pyrazol-4-yl)acetamide]: the IC50 on FAAH and at MAGL was at most 100 nM in each case. Also, the inhibition at 1 µM at FAAH (1 μM) and on MAGL (1 μM) was at least 75% in each case.
Turning to `CC(=O)N(C)c1cnn(C(=O)N2CCN(Cc3ccccc3N3CCCC3)CC2)c1` [Example 215, N-methyl-N-(1-(4-(2-(pyrrolidin-1-yl)benzyl)piperazine-1-carbonyl)-1H-pyrazol-4-yl)acetamide], the inhibition at 1 µM is 25 to 50% on FAAH (1 μM) and at least 75% at MAGL (1 μM).
On to `CC(=O)N(C)c1cnn(C(=O)N2CCN(Cc3ccccc3N3CCOCC3)CC2)c1` [Example 216, N-methyl-N-(1-(4-(2-morpholinobenzyl)piperazine-1-carbonyl)-1H-pyrazol-4-yl)acetamide], for which the inhibition at 1 µM on FAAH (1 μM) is 0 to 25%; at MAGL (1 μM), at least 75%.
For `CN(c1cnn(C(=O)N2CCN(Cc3ccc(C(F)(F)F)cc3N3CCCC3)CC2)c1)S(C)(=O)=O` [Example 218, N-methyl-N-(1-(4-(2-(pyrrolidin-1-yl)-4-(trifluoromethyl)benzyl)piperazine-1-carbonyl)-1H-pyrazol-4-yl)methanesulfonamide], the IC50 fell in the range of 1000 to 10000 nM at FAAH and 100 to 1000 nM on MAGL. The inhibition at 1 µM is 25 to 50% on FAAH (1 μM) and at least 75% on MAGL (1 μM).
For `COc1cc(-c2ccccc2)ccc1CN1CCN(C(=O)n2cc(NS(C)(=O)=O)cn2)CC1` [Example 220, N-(1-(4-((3-methoxy-[1,1′-biphenyl]-4-yl)methyl)piperazine-1-carbonyl)-1H-pyrazol-4-yl)methanesulfonamide], in that order: at most 100 nM, 100 to 1000 nM, at least 75% and at least 75%.
For `CS(=O)(=O)Nc1cnn(C(=O)N2CCN(Cc3ccc(-c4ccccc4)cc3Cl)CC2)c1` [Example 221, N-(1-(4-((3-chloro-[1,1′-biphenyl]-4-yl)methyl)piperazine-1-carbonyl)-1H-pyrazol-4-yl)methanesulfonamide], in that order: at most 100 nM, 100 to 1000 nM, at least 75% and at least 75%.
For `CC(=O)N(C)c1cnn(C(=O)N2CC3CN(Cc4ccc(-c5ccccc5)cc4C)CC3C2)c1` (centres unmarked) [Example 223, N-methyl-N-(1-(5-((3-methyl-[1,1′-biphenyl]-4-yl)methyl)octahydropyrrolo[3,4-c]pyrrole-2-carbonyl)-1H-pyrazol-4-yl)acetamide], in that order: at most 100 nM, at most 100 nM, at least 75% and at least 75%.
With `CS(=O)(=O)Nc1cnn(C(=O)N2CCN(Cc3ccc(-c4ccccc4)cc3OCc3ccccc3)CC2)c1` [Example 224, N-(1-(4-((3-(benzyloxy)-[1,1′-biphenyl]-4-yl)methyl)piperazine-1-carbonyl)-1H-pyrazol-4-yl)methanesulfonamide], the inhibition at 1 µM on FAAH (1 μM) was 50 to 75%; at MAGL (1 μM), at least 75%.
For the molecule `CC(=O)N(C)c1cnn(C(=O)N2CCC3(CC2)CN(Cc2ccc(-c4ccccc4)cc2C)C3)c1` [Example 226, N-methyl-N-(1-(2-((3-methyl-[1,1-biphenyl]-4-yl)methyl)-2,7-diazaspiro[3.5]nonane-7-carbonyl)-1H-pyrazol-4-yl)acetamide], the results for the IC50 at FAAH and at MAGL were 100 to 1000 nM and at most 100 nM, respectively. Also, the inhibition at 1 µM at FAAH (1 μM) and at MAGL (1 μM) was at least 75% each time.
As for `CC(=O)Nc1cnn(C(=O)N2CCN(Cc3cc(N4CCCC4)cc(C(F)(F)F)c3)CC2)c1` [Example 227], the IC50 on FAAH and on MAGL was 100 to 1000 nM each time. The “FAAH % inh. 1 μM (mouse)” value at FAAH (1 μM) is “B (B = % inhibition greater than or equal to 50% and less than 75%)”. Also, the “MAGL % inh. 1 μM (mouse)” value on MAGL (1 μM) is listed as “A (A = % inhibition greater than or equal to 75%)”.
In the case of `CC(=O)Nc1cnn(C(=O)N2CCN(Cc3ccc(C(F)(F)F)cc3N3C4CCC3COC4)CC2)c1` [Example 228, N-(1-(4-(2-(3-oxa-8-azabicyclo[3.2.1]octan-8-yl)-4-(trifluoromethyl)benzyl)piperazine-1-carbonyl)-1H-pyrazol-4-yl)acetamide], the results for the IC50 on FAAH and at MAGL were 1000 to 10000 nM and 100 to 1000 nM, respectively. Also, the values for the inhibition at 1 µM at FAAH (1 μM) and at MAGL (1 μM) were 0 to 25% and at least 75%, respectively.
On to `CC(=O)N(C)c1cnn(C(=O)N2CC3(CCN(Cc4cccc(Oc5ccccc5)c4)CC3)C2)c1` [Example 229, N-methyl-N-(1-(7-(3-phenoxybenzyl)-2,7-diazaspiro[3.5]nonane-2-carbonyl)-1H-pyrazol-4-yl)acetamide], for which the IC50 at FAAH was at most 100 nM; on MAGL, 1000 to 10000 nM. Besides, the values for the inhibition at 1 µM at FAAH (1 μM) and on MAGL (1 μM) were at least 75% and 50 to 75%, respectively.
Regarding `CC(=O)N(C)c1cnn(C(=O)N2CC3(CCN(Cc4ccc(CN5CCOCC5)cc4)CC3)C2)c1` [Example 230, N-methyl-N-(1-(7-(4-(morpholinomethyl)benzyl)-2,7-diazaspiro[3.5]nonane-2-carbonyl)-1H-pyrazol-4-yl)acetamide], the inhibition at 1 µM was in the range of 0 to 25% at FAAH (1 μM) and 25 to 50% at MAGL (1 μM).
`CC(=O)N(C)c1cnn(C(=O)N2CCC3(CCN(Cc4ccc(-c5ccccc5)cc4C)C3)C2)c1` (centres unmarked) [Example 232, N-methyl-N-(1-(7-((3-methyl-[1,1′-biphenyl]-4-yl)methyl)-2,7-diazaspiro[4.4]nonane-2-carbonyl)-1H-pyrazol-4-yl)acetamide]: the IC50 at FAAH and at MAGL was at most 100 nM each time. For the same molecule, the inhibition at 1 µM at FAAH (1 μM) and at MAGL (1 μM) was at least 75% in each case.
`CC(=O)N(C)c1cnn(C(=O)N2CCC3(CC2)CN(Cc2ccc(CN4CCOCC4)cc2)C3)c1` [Example 233, N-methyl-N-(1-(2-(4-(morpholinomethyl)benzyl)-2,7-diazaspiro[3.5]nonane-7-carbonyl)-1H-pyrazol-4-yl)acetamide]: the inhibition at 1 µM on FAAH (1 μM) lay in the range of 0 to 25%; on MAGL (1 μM) it was 50 to 75%.
For `CC(=O)N(C)c1cnn(C(=O)N2CC3CN(Cc4cccc(Oc5ccccc5)c4)CC3C2)c1` (centres unmarked) [Example 234, N-methyl-N-(1-(5-(3-phenoxybenzyl)octahydropyrrolo[3,4-c]pyrrole-2-carbonyl)-1H-pyrazol-4-yl)acetamide], the IC50 on FAAH and on MAGL was at most 100 nM throughout. Besides, the inhibition at 1 µM on FAAH (1 μM) and on MAGL (1 μM) was at least 75% each time.
Regarding `CC(=O)N(C)c1cnn(C(=O)N2CCC3(CC2)CN(Cc2cccc(Oc4ccccc4)c2)C3)c1` [Example 235, N-methyl-N-(1-(2-(3-phenoxybenzyl)-2,7-diazaspiro[3.5]nonane-7-carbonyl)-1H-pyrazol-4-yl)acetamide], the IC50 on FAAH and at MAGL was at most 100 nM in each case. The inhibition at 1 µM at FAAH (1 μM) and at MAGL (1 μM) was at least 75% each time.
`CC(=O)N(C)c1cnn(C(=O)N2CC3CN(Cc4cccc(Oc5ccc(Cl)cc5)c4)CC3C2)c1` (centres unmarked) [Example 237, N-(1-(5-(3-(4-chlorophenoxy)benzyl)octahydropyrrolo [3,4-c]pyrrole-2-carbonyl)-1H-pyrazol-4-yl)-N-methylacetamide]: the IC50 on FAAH and at MAGL was at most 100 nM in each case. The inhibition at 1 µM on FAAH (1 μM) and on MAGL (1 μM) was at least 75% each time.
